Calls of active or inactive are those of the source. The rule behind the calls is not given here.
What was measured:
[1] = target: T1, Tankyrase 1/2 (Homo sapiens, UniProt Q9H2K2+O95271); assay: Inhibition of tankyrase in human SW480 cells assessed as degradation of total beta-catenin after 40 to 48 hrs; assay type: cell-based
T1 sequence (Q9H2K2 whole entry): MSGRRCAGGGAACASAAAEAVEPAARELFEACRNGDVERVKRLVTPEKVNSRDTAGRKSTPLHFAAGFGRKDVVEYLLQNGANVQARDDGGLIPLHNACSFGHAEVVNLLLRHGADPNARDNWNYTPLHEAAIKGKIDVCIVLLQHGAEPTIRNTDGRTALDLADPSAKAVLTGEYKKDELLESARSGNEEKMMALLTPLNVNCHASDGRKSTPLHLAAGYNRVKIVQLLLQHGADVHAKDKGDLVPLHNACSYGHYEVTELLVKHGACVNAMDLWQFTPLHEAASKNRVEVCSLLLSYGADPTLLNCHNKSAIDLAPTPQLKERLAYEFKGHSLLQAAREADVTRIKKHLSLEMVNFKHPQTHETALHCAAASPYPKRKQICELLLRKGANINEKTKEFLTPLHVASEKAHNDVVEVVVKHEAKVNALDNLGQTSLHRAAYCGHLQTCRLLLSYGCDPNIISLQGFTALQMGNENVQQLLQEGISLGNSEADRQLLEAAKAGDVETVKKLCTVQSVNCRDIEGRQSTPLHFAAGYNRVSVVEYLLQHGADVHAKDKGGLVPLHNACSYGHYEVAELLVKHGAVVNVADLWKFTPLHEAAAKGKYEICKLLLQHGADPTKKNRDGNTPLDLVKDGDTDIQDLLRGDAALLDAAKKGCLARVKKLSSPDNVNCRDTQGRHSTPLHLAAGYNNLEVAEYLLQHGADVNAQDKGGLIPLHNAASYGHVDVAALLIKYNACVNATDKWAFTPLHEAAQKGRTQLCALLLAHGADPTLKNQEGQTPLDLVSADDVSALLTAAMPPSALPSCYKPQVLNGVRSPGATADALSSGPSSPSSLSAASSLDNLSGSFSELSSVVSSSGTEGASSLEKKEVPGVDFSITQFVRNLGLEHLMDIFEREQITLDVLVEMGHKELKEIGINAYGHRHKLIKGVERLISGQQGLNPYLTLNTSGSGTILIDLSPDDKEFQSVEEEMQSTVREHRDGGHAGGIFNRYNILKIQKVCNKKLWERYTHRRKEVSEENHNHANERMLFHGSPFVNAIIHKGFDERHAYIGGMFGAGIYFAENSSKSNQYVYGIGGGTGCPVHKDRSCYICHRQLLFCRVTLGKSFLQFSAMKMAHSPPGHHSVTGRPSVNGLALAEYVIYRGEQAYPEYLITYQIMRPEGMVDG
T1 sequence (O95271 whole entry): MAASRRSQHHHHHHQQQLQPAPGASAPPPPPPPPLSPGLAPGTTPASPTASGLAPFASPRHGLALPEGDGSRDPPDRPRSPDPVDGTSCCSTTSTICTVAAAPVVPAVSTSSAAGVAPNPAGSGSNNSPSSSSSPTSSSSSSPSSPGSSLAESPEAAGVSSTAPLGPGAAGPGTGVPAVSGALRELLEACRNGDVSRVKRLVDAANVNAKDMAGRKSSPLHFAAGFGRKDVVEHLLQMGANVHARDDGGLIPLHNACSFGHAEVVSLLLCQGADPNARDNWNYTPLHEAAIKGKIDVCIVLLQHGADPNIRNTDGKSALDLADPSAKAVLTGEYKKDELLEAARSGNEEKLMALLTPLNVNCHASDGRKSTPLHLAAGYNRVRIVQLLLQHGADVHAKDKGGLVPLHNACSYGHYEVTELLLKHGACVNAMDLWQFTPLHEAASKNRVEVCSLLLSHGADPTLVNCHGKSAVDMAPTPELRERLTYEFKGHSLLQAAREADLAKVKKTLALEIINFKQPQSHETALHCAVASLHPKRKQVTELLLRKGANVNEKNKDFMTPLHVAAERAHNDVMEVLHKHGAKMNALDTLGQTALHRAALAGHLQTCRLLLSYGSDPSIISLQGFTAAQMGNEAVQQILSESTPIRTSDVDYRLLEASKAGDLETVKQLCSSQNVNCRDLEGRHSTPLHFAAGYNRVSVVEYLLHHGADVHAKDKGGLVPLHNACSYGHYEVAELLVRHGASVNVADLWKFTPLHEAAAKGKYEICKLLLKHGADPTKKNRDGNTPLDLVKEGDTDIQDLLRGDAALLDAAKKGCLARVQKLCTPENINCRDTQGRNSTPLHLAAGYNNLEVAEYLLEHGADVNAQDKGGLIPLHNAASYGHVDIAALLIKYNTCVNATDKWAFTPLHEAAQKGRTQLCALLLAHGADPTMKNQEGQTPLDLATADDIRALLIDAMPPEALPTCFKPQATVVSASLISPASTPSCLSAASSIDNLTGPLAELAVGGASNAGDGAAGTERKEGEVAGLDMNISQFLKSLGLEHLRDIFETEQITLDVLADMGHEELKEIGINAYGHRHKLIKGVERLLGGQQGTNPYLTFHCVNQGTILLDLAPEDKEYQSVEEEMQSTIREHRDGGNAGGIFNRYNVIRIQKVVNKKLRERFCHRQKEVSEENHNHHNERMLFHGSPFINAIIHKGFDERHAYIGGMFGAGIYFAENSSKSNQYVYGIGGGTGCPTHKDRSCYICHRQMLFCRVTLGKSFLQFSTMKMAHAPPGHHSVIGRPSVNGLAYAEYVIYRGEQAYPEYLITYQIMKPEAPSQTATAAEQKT

[2] = system: Mus musculus; assay: In vivo inhibition of tankyrase-mediated Wnt gene transcription in tumor of athymic nude mouse xenografted with human DLD1 cells at 200 mg/kg, po bid for 3 days by STF assay; assay type: functional, organism-based; set-up: dose 200 mg/kg; settings: DLD-1
[3] = system: Mus musculus; assay: In vivo inhibition of tankyrase in tumor of athymic nude mouse xenografted with human DLD1 cells assessed as axin accumulation at 200 mg/kg, po bid for 3 days; assay type: functional, organism-based; set-up: dose 200 mg/kg; settings: DLD-1
[4] = target: Poly [ADP-ribose] polymerase tankyrase-2 (Homo sapiens, UniProt Q9H2K2); assay: Inhibition of recombinant TNKS2 (unknown origin) after 60 mins by spectrophotometric analysis
[5] = system: Mus musculus; assay: Toxicity in athymic nude mouse assessed as hunched posture at 100 mg/kg, po bid for 8 days; assay type: organism-based; set-up: dose 100 mg/kg, route oral; settings: in vivo, 192 h
[6] = target: Beta-1 adrenergic receptor (Homo sapiens, UniProt P08588); assay: Binding affinity to adrenergic beta1 receptor (unknown origin)
Chain of Beta-1 adrenergic receptor (P08588 whole entry): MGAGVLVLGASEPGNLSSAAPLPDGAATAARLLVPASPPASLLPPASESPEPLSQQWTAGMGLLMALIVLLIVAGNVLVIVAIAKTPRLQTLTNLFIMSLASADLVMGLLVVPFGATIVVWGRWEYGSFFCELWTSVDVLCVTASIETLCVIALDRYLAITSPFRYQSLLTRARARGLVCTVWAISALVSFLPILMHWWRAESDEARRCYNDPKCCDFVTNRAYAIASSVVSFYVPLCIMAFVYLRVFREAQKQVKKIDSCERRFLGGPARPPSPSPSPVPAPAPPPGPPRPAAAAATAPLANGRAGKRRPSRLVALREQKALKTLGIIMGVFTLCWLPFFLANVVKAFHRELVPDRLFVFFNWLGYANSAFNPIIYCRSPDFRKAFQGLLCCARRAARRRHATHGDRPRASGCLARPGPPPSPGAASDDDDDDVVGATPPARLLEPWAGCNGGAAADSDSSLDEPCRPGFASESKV

[7] = system: Mus musculus; assay: Toxicity in athymic nude mouse assessed as dehydration at 100 mg/kg, po bid for 8 days; assay type: organism-based; set-up: dose 100 mg/kg, route oral; settings: in vivo, 192 h
[8] = target: Bile salt export pump (Homo sapiens, UniProt O95342); assay: Inhibition of BSEP (unknown origin)
Chain of Bile salt export pump (O95342 whole entry): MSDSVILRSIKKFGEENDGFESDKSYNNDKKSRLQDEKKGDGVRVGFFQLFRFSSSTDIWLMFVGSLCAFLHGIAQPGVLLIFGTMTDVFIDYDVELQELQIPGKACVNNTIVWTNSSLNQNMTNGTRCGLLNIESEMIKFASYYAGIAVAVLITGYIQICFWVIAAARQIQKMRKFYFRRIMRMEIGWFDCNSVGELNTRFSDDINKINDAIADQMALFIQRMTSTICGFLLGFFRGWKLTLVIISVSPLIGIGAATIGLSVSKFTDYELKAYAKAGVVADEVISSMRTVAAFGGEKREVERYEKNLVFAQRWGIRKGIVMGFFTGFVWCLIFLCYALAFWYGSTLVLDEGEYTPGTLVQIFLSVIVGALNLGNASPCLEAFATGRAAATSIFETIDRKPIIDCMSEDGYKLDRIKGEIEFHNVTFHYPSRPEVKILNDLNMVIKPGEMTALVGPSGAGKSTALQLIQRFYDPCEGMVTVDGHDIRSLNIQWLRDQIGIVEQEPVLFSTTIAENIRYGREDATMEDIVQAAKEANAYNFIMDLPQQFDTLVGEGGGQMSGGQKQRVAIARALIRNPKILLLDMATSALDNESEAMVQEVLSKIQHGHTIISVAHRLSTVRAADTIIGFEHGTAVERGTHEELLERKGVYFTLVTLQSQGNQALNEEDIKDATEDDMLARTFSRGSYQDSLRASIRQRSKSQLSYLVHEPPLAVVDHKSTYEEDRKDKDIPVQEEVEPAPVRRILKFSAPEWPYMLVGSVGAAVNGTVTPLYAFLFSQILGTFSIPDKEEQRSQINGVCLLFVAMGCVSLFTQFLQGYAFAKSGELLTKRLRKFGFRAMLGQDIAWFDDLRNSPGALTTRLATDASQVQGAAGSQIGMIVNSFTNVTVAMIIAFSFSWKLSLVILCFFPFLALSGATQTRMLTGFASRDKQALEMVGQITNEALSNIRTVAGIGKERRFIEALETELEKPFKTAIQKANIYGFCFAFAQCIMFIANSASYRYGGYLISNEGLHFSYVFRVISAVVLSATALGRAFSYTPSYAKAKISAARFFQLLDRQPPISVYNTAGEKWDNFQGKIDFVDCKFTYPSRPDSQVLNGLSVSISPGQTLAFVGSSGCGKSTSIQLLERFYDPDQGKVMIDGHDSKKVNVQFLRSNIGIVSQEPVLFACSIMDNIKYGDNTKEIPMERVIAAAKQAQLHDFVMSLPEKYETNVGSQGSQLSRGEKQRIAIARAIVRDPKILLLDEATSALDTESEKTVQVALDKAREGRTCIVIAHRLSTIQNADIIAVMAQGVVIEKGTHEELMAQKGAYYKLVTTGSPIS

[9] = target: D(2) dopamine receptor (Homo sapiens, UniProt P14416); assay: Binding affinity to dopamine D2 receptor (unknown origin)
Chain of D(2) dopamine receptor (P14416 whole entry): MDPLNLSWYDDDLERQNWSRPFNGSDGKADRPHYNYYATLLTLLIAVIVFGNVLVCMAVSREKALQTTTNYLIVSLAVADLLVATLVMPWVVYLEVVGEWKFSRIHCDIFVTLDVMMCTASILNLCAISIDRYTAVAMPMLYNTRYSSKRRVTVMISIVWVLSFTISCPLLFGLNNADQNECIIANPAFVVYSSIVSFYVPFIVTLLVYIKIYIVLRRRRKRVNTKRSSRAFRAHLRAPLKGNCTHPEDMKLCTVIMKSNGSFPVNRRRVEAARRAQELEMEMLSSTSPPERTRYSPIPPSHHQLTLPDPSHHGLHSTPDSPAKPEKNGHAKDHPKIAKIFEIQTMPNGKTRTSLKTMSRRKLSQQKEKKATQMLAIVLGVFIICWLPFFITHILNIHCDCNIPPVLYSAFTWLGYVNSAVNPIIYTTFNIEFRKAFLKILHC

[10] = Toxicity in po dosed athymic nude mouse administered bid for 8 days; assay type: organism-based; settings: in vivo
[11] = target: Muscarinic acetylcholine receptor M1 (Homo sapiens, UniProt P11229); assay: Binding affinity to muscarinic M1 receptor (unknown origin)
Chain of Muscarinic acetylcholine receptor M1 (P11229 whole entry): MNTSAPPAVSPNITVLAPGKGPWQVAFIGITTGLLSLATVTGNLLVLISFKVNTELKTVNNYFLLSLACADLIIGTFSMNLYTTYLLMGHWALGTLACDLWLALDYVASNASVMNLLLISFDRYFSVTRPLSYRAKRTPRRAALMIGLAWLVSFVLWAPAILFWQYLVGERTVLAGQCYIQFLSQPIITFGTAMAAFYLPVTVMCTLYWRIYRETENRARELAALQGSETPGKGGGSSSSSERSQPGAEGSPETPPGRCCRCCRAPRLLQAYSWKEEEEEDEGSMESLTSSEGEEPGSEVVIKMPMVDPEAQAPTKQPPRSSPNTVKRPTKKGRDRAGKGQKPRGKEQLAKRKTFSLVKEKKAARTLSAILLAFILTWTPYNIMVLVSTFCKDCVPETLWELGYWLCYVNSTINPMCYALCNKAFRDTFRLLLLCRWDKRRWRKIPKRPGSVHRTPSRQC

[12] = target: Voltage-gated inwardly rectifying potassium channel KCNH2 (Homo sapiens, UniProt Q12809); assay: Inhibition of human ERG
Chain of Voltage-gated inwardly rectifying potassium channel KCNH2 (Q12809 whole entry): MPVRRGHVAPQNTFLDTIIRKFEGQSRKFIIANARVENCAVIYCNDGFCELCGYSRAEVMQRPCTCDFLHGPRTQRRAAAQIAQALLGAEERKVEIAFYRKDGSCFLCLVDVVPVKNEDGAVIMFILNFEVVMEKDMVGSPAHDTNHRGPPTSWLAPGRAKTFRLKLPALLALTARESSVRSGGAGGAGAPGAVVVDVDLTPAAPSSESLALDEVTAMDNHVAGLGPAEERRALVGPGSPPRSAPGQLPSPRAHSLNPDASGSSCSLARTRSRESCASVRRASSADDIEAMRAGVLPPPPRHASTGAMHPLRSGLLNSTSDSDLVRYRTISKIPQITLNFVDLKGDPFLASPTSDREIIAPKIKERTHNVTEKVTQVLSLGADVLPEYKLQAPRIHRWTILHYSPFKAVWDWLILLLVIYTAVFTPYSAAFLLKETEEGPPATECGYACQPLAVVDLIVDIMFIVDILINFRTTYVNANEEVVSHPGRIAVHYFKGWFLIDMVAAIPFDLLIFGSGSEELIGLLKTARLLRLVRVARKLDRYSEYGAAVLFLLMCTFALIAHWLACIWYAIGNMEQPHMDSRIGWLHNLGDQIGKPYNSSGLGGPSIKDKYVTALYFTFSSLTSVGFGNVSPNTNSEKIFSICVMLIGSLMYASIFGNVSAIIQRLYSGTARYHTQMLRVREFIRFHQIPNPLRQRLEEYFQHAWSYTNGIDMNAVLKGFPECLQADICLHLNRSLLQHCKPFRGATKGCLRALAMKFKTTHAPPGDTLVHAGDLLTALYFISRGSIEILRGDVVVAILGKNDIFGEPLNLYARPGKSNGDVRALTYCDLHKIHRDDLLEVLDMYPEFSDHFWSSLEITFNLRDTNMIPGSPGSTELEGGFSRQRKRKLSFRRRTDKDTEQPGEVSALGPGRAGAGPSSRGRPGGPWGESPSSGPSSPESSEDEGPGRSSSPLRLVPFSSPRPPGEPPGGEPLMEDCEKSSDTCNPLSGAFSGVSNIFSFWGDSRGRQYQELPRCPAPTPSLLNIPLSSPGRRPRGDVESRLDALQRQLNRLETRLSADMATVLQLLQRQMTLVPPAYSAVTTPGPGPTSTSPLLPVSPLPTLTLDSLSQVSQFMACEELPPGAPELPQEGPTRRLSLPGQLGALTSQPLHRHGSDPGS

IC50 [1] [µM]	SMILES	inhibition [2]	inhibition [3]	IC50 [4] [µM]	Activity [5]	IC50 [6] [µM]	Activity [7]	IC50 [8] [µM]	IC50 [9] [µM]	MTD at 192 h [10] [mg/kg]	IC50 [11] [µM]	IC50 [12] [µM]
0.233	CC1(C)OC(=O)N(c2ccc(-c3cnc(N)c(-c4ncccn4)c3)cc2)[C@H]1c1ccccc1	Active	Active									
	CC1(C)OC(=O)N([C@H]2CC[C@H](c3cnc(N)c(-c4ncccn4)c3)CC2)[C@H]1c1ccccc1			0.002	Toxic	> 48.5	Toxic	11	> 48.5	50	> 48.5	10.9
